{"source": "patent US20090311246A1", "about": "“Method of Enhancing Remyelination in Demyelinating Diseases of the Central Nervous System” (priority 2008, published 2009)", "key": {"[1]": {"system": "B6 mice with EAE", "assay": "Antibody responses (ELISA) of E2 137-151 peptide treated EAE mice", "type": "in vivo", "method": "FIG. 7 Comparison of antibody responses (±SEM) of EAE, E2-137-151 peptide treated, and untreated EAE mice to E2-137-151, MOG 35-55 and control peptides. Three experiments were performed with total number of 21 EAE and 22 treated EAE. All mice were immunized subcutaneously with myelin oligodendrocyte glycoprotein (MOG) peptide, 35-55 in CFA, as described above, on D0. EAE mice were treated as described for FIG. 6. All mice were sacrificed at the end of experiment on D39 post immunization.\nTo measure the antibody response of both WT and γδ KO mice against SFV and two of the peptides of the SFV envelope protein, E2, an indirect ELISA was performed. Sera were pooled from 4-6 SFV-infected WT, and 3 KO, mice on days 0, 7, 14, 21 and 35 pi. Briefly, Immunolon 2HB 96 well microtiter plates (VWR, Bridge Port, N.J.) were coated with 1 μg/well of each antigen in 100 μl/well carbonate buffer overnight at room temperature. After washing, the plates were blocked and serum samples were added. […] After washing, biotinylated goat anti-mouse Igs (BD Pharmingen, Torreyana, Calif.), Strepavidin conjugated to Horse Radish Peroxidase (Vector Laboratories, Burlingame, Calif.), and OPD substrate (Sigma, St. Louis, Mo.) were used, as previously described (4, 9). […] Values were considered to be positive when they were >0.3 OD units and exceeded the mean value plus three standard deviations for antibody response on day 0 pi of mice of the same strain.\nAntibody Responses of RAE and E2 137-151 treated EAE mice to E2-137 and control peptide (E2 115-129) were measured by ELISA at the end of experiment on D39 pi."}, "[2]": {"system": "SFV-infected TCR γδ-KO and WT mice", "assay": "Clinical scores of SFV-infected, E2 137-151 immunized TCR γδ-KO and WT mice", "type": "in vivo", "details": "0.5 mg/injection (25 mg/kg) sc in IFA, scale 0-VI", "method": "FIG. 5 Comparison of Clinical Scores (±SEM) of SFV-infected E2 137-151 peptide-immunized, and non-immunized TCR γδ-KO and WT mice, on different days post infection. Data shown is the average of two experiments with a total of 15 WT, 15 KO mice, and 10 immunized KO mice (only 5-10 KO mice could be obtained at each time point). SFV-infected KO mice were immunized subcutaneously with E2 137-151 (0.5 mg/injection or 25 mg/kg, based on the average weight of 20 g/mouse) in IFA, one day after SFV-infection. Additional inoculations of E2 137-151/IFA were performed on days 5, 15, and 20. Mice were sacrificed on days 7, 15, 21, and 35 pi. Clinical scores of sacrificed and dead animals have been considered in average calculation until the end of experiments on day 35. […] Data from E2-137-immunized WT mice is not shown (p=NS).\nMethod—Five-week old C57B16 (B6) WT and KO mice (Jackson Laboratories, Bar Harbor, Mass.) were infected with SFV, and KO mice were immunized subcutaneously with E2-137-151 (0.5 mg/injection or 25 mg/kg, based on the average weight of 20 g/mouse) in IFA, one day after SFV-infection. Additional inoculations of E2 137-151/IFA were performed on days 5 and 15 for KO mice only. Animals were observed daily for clinical manifestations of disease and were scored on a scale of 0-VI. 0=no abnormality; I-mild hind limb weakness (some difficulty righting themselves when turned on their back); II=moderate hind limb weakness, sometimes associated with floppy tail; III=weakness of hind limbs accompanied by some forelimb weakness, sometimes more marked on one limb or one side, but not complete paralysis; IV=hind limb paresis accompanied by mild forelimb weakness; V=paralysis of hind limbs, associated with moderate forelimb weakness; and VI=quadriplegia, moribund."}, "[3]": {"system": "sera from SFV-infected WT and γδ KO mice", "assay": "ELISA of sera from SFV-infected WT and γδ KO mice against SFV, E2 peptides, PPD and rMOG", "type": "binding"}, "[4]": {"system": "B6 mice with EAE", "assay": "Inflammation, demyelination and remyelination in lumbar spinal cord of E2 137-151 treated EAE mice", "type": "in vivo", "excerpt": "All figures come from one micron epoxy sections taken from brain tissues, fixed in 2.5% glutaraldehyde/1% osmium tetroxide, embedded in epoxy resin, stained with toluidine blue and photographed by light microscopy.\nIn order to be able to detect the de- and remyelination accurately, at the end of the experiment, mice will be sacrificed by an overdose of sodium pentobarbital and perfused by intracardiac puncture with Trumps fixative, containing 4% paraformaldehyde and 1% glutaraldehyde. Brains and spinal cords are removed and post fixed in osmium textroxide. Each brain is sectioned coronally into three pieces by cuts through infandibulum and optic chiasm. Spinal cord tissues will be also harvested and processed. Every third block (10-12 blocks per spinal cord, cervical to lumbar range) will be embedded, along with brain sections, in Araldite plastic. The embedded tissues will be cross-sectioned at 1 μm thickness, and the slides stained with toluidine blue or 4% paraphenylenediamine to highlight the myelin sheets. We have studied the one-micron thin sections of the brains of SFV-infected WT and KO on days of 21-42 postinfection.\nIn order to be able to analyze de- and remyelination accurately in untreated and E2 137-151 treated LAE mice, one micron sections of lumbar spinal cords of all mice, were analyzed as described above for SFV-infected mice, on different days post immunization. […] Widespread Wallerian degeneration evidenced by dilated and collapsed myelin sheaths, some containing axonal remnants, was also observed. Cellular infiltration was present within the meningeal space as well. […] Spinal cord white matter of normal control mice is also shown for comparison (FIG. 8C)"}}, "note": "Entries after “also recorded” stand apart in the source; their conditions may differ."}
{"smiles": "CC[C@H](C)[C@H](NC(=O)[C@H](CCC(=O)O)NC(=O)[C@H](CCCCN)NC(=O)CNC(=O)[C@H](Cc1ccc(O)cc1)NC(=O)[C@H](Cc1c[nH]cn1)NC(=O)[C@@H]1CCCN1C(=O)[C@H](CCCNC(=N)N)NC(=O)[C@@H](NC(=O)[C@@H](NC(=O)[C@H](Cc1ccccc1)NC(=O)[C@H](CCCCN)NC(=O)[C@H](CCC(=O)O)NC(=O)[C@H](CCCNC(=N)N)NC(=O)CN)[C@@H](C)O)[C@@H](C)CC)C(=O)O", "note": "[E2 137-151]", "values": [{"measurement": "Antibody response to E2-137, treated compared with untreated EAE mice", "setting": "[1]; ELISA, D39 pi", "result": "significantly higher than untreated EAE mice"}, {"measurement": "Antibody responses to MOG 35-55 and control peptide, treated compared with untreated EAE mice", "setting": "[1]; ELISA, D39 pi", "result": "no significant difference"}, {"measurement": "Antibody response to E2-137, treated compared with untreated EAE mice", "setting": "[1]; ELISA, D39 pi, listed as E2-137 peptide", "result": "treated>untreated EAE mice"}, {"measurement": "Reactivity of sera from treated EAE mice with MBP 54-68", "setting": "[1]; preliminary experiments", "result": "also reacted with MBP 54-68"}, {"measurement": "Average clinical score / severity of disease, immunized KO compared with non-immunized KO mice", "setting": "[2]; listed as E2 137-151 peptide, 25 mg/kg", "result": "significantly suppressed"}, {"measurement": "Average clinical score / severity of disease, immunized KO compared with non-immunized KO mice", "setting": "[2]; listed as E2-137, 25 mg/kg", "result": "nonimmunized <E2-137 immunized KO mice"}, {"measurement": "Average clinical score / severity of disease, immunized KO compared with non-immunized KO mice", "setting": "[2]; listed as E2-137-151, 25 mg/kg", "result": "decreased significantly"}, {"measurement": "Net change in the level of antibody, D0 WT", "setting": "[3]; WT mice, day 0", "result": 0, "unit": "nano gr"}, {"measurement": "Net change in the level of antibody, D7 WT", "setting": "[3]; WT mice, day 7 pi, ± SD", "result": "72 ± 28", "unit": "nano gr"}, {"measurement": "Net change in the level of antibody, D14 WT", "setting": "[3]; WT mice, day 14 pi, ± SD", "result": "565 ± 33", "unit": "nano gr"}, {"measurement": "Net change in the level of antibody, D21 WT", "setting": "[3]; WT mice, day 21 pi, ± SD", "result": "1196 ± 61", "unit": "nano gr"}, {"measurement": "Net change in the level of antibody, D35 WT", "setting": "[3]; WT mice, day 35 pi, ± SD", "result": "951 ± 50", "unit": "nano gr"}, {"measurement": "Reactivity of sera from SFV-infected WT mice", "setting": "[3]; WT, sera 1:80, day 7 pi increasing to day 35", "result": "reacted strongly"}, {"measurement": "Net change in the level of antibody, D0 KO", "setting": "[3]; γδ KO mice, day 0", "result": 0, "unit": "nano gr"}, {"measurement": "Net change in the level of antibody, D7 KO", "setting": "[3]; γδ KO mice, day 7 pi, ± SD", "result": "39 ± 25", "unit": "nano gr"}, {"measurement": "Net change in the level of antibody, D14 KO", "setting": "[3]; γδ KO mice, day 14 pi, ± SD", "result": "36 ± 19", "unit": "nano gr"}, {"measurement": "Net change in the level of antibody, D21 KO", "setting": "[3]; γδ KO mice, day 21 pi, ± SD", "result": "46.5 ± 19", "unit": "nano gr"}, {"measurement": "Net change in the level of antibody, D35 KO", "setting": "[3]; γδ KO mice, day 35 pi, ± SD", "result": "41 ± 28", "unit": "nano gr"}, {"measurement": "Reactivity of sera from SFV-infected γδ KO mice", "setting": "[3]; γδ KO, sera 1:80", "result": "marginally reacted"}, {"measurement": "Wallerian degeneration in lumbar spinal cord", "setting": "[4]; day 33", "result": "No wallerian degeneration"}, {"measurement": "Inflammation in lumbar spinal cord", "setting": "[4]; day 33 pi", "result": "little to no inflammation; also recorded: No wallerian degeneration and inflammation is present"}, {"measurement": "Remyelination in spinal cord", "setting": "[4]; day 33 pi", "result": "some remyelinating fibers; also recorded: some fibers display remyelination"}, {"measurement": "Remyelination in spinal cord", "setting": "[4]; day 33 pi, listed as E2 137-151 peptide", "result": "induced remyelination"}]}
